The assay deals with PIN1 (Homo sapiens, UniProt Q13526). The assay is described as follows: NMR methyl chemical shift perturbation titration; intermolecular NOEs and NMR2 complex structure. The class given is binding.
Sequence of PIN1 (Q13526 whole entry): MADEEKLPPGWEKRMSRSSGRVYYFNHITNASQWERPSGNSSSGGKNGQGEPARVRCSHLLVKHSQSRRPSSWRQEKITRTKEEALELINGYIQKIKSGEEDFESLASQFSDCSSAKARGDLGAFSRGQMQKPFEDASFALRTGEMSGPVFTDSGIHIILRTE
As to `Cc1nc(-c2cccc(C(F)(F)F)c2)[nH]c1C(=O)O` [compound 3], the Kd turned out to be 6700 µM.
On to `Cc1cccc(-c2nc(C(=O)O)c(C)[nH]2)c1` [compound 1], for which the Kd stood at 260 µM.
The figure for `Cc1nc(-c2cccc(Cl)c2)[nH]c1C(=O)O` [compound 2] is 670 µM.

For orientation: Kd means a measure of binding affinity in units of concentration.

Source of the values: article PMC7649837, “Protein–fragment complex structures derived by NMR molecular replacement” (RSC Medicinal Chemistry, 2020).
